Assay results from US20260315492A1, “5,6-FUSED BICYCLIC AMIDES AND COMPOSITIONS FOR USE AS 15-PROSTAGLANDIN DEHYDROGENASE MODULATORS” (AMGEN INC., priority 2023, published 2026).

Each molecule was assayed against T1, human recombinant 15-PGDH (Homo sapiens, UniProt P15428) (assay: Inhibition of recombinant 15-PGDH enzymatic activity (NADH quantification after addition of PGE2 and NAD+)). Conditions: recombinant 15-PGDH; 15 min pre-incubation, 60-minute reaction, room temperature, pH 7.5; PGE2 and NAD+; read-out: PGDH-Lumi IC50.
T1 sequence (P15428 1-266): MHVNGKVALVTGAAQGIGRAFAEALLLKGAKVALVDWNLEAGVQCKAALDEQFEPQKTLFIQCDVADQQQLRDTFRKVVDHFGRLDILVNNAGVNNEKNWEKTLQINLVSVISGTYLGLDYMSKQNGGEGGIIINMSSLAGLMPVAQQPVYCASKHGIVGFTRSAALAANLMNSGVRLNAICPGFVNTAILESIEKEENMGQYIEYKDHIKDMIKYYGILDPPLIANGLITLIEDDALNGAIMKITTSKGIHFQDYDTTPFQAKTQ
Format: biochemical
Outline: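 Human recombinant 15-PGDH in 50 mM Tris pH 7.5, 0.01% Tween-20, 100 μM DTT, pre-incubated 15 min at room temperature with 22-point 2-fold compound dilutions. Reaction started with PGE2 and β-NAD+, run 60 min at room temperature, quenched. NADH signal read as activity; IC50 from concentration-response.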

IC50 [nM] | SMILES
46.4 | Cn1cc2cc(-c3ccc4cc(C(=O)N5CCOCC56CCC6)sc4n3)cnc2n1 [Compound B59, (6-(2-methyl-2H-pyrazolo[3,4-b]pyridin-5-yl)thieno[2,3-b]pyridin-2-yl)(8-oxa-5-azaspiro[3.5]nonan-5-yl)methanone]
0.816 | C[C@@H]1COCCN1C(=O)c1sc2nc(-c3cnc4nn(C)cc4c3)cc(C3CCC3)c2c1N [Compound B6R, (3-amino-4-cyclobutyl-6-(2-methyl-2H-pyrazolo[3,4-b]pyridin-5-yl)thieno[2,3-b]pyridin-2-yl)((3R)-3-methyl-4-morpholinyl)methanone]
0.712 | Cn1cc2cc(-c3ccc4cc(C(=O)N5CCOC6(CC6)C5)sc4n3)cnc2n1 [Compound B47, (6-(2-methyl-2H-pyrazolo[3,4-b]pyridin-5-yl)thieno[2,3-b]pyridin-2-yl)(4-oxa-7-azaspiro[2.5]octan-7-yl)methanone]
0.853 | Cn1cc2cc(-c3cc(C4CC4)c4cc(C(=O)N5CCC(F)(F)CC5)sc4n3)cnc2n1 [Compound B19, (4-cyclopropyl-6-(2-methyl-2H-pyrazolo[3,4-b]pyridin-5-yl)thieno[2,3-b]pyridin-2-yl)(4,4-difluoro-1-piperidinyl)methanone]
1.45 | Cn1cc2cc(-c3ccc4cc(C(=O)N5CCC(C(F)(F)F)CC5)sc4n3)cnc2n1 [Compound B21, (6-(2-methyl-2H-pyrazolo[3,4-b]pyridin-5-yl)thieno[2,3-b]pyridin-2-yl)(4-(trifluoromethyl)-1-piperidinyl)methanone]
6.33 | Cn1nc2cc(-c3ccc4cc(C(=O)N5CCOCC5)sc4n3)cnc2n1 [Compound B42, (6-(2-methyl-2H-[1,2,3]triazolo[4,5-b]pyridin-6-yl)thieno[2,3-b]pyridin-2-yl)(4-morpholinyl)methanone]
986 | C[C@H]1COCCN1C(=O)c1cc2ccc(-c3ccc(=O)[nH]c3)nc2s1 [Compound B48S, 5-(2-(((3S)-3-methyl-4-morpholinyl)carbonyl)thieno[2,3-b]pyridin-6-yl)-2(1H)-pyridinone]
1.17 | C[C@H]1COCCN1C(=O)c1cc2c(C3CC3)cc(-c3cnc4nn(C)cc4c3)nc2s1 [Compound B17S, (4-cyclopropyl-6-(2-methyl-2H-pyrazolo[3,4-b]pyridin-5-yl)thieno[2,3-b]pyridin-2-yl)((3S)-3-methyl-4-morpholinyl)methanone]
1.38 | Cn1cc2cc(-c3cnc4cc(C(=O)N5CCC(F)(F)CC5)sc4n3)cnc2n1 [Compound C39]
1.26 | Cn1cc2cc(-c3cc(-c4ccnn4C)c4cc(C(=O)N5CCOCC5)sc4n3)cnc2n1 [Compound B13, (6-(2-methyl-2H-pyrazolo[3,4-b]pyridin-5-yl)-4-(1-methyl-1H-pyrazol-5-yl)thieno[2,3-b]pyridin-2-yl)(4-morpholinyl)methanone]
